Results taken from patent US20170265465A1, “BIORATIONAL TREATMENT PRODUCTS AND METHODS OF USING SAME” (Board of Trustees of Michigan State University, priority 2014, published 2017).

Assays:
Format in all cases: in vivo
irrigated putting green [1] = assay: Example 15: dew rating; settings: Sept. 15, visual scale 1 = least
Method: (§1) The study was established in four replications of a randomized block design utilizing 2 ft.×21 ft. plots with 6 inch alleys. Treatments were initially applied on Sep. 13, 2016 with the same sprayer and under the same conditions described in Example 1. Turfgrass quality ratings and biomass ratings were performed as described in Example 1. The plots were trimmed on September 19, October 8, and Oct. 24, 2016 and clippings were also collected as described in Example 1.
(§2) Treatments were re-applied on Sep. 28, 2016 and Oct. 11, 2016. Turfgrass visual growth and quality ratings were taken periodically, along with turfgrass color ratings as taken with a Spectrum Technologies, Inc. TCM 500 NDVI Color Meter and a Spectrum Technologies, Inc. FieldScout CM 1000 Chlorophyll Meter. The study was irrigated as needed to prevent wilt. No background fertility was applied to the study area. The area was sprayed with 26GT fungicide on Sep. 27, 2016 to control dollar spot disease.
Dew reduction (Table 25) is directly related to the amount of bio-adjuvant applied, specifically, the amount of canola oil in the treatment. Dew reduction is relevant to disease control because it can translate into reduced foliar disease pressure, and reduced frost accumulation. […] 15, 2016.

irrigated putting green [2] = assay: Example 15: dried clipping weights; settings: application interval 14 days; for All Clippings (Dried), Mean Total Clippings: Sept 19-Oct. 24
Method: Some biomass ratings were subjective visual estimations based on appearance of a combination of increased biomass and increased density on a 1 (least increase) to 9 (most increase) scale. Objective biomass ratings were also performed based on an increase in dried weight of clippings. Clippings were collected over pre-measured plot areas in each treatment replicate using a Toro® brand walk-behind greens mower Model Greensmaster 8000 at the height described in this Example and dried in a drying oven (60° C.) for approximately 48 hours before being weighed.
as §1, §2

irrigated putting green [3] = assay: Example 15: visual turfgrass growth rating; settings: scale 1-5 (1 = least, 5 = most)
Method: as §1, §2

irrigated putting green [4] = assay: Example 15, 2016 bio-adjuvant/fertility study: visual turfgrass quality rating; settings: scale 1-9 (1 = worst, 9 = best, 7 = acceptable)
Method: as §1, §2

[5] = test system: winter-dormant creeping bentgrass putting green (Agrostis palustris); assay: Example 4, 2013 spring green-up/winter dormancy break study: turfgrass quality rating; settings: May 11, 2013; scale 1-9, 7 = acceptable; per 1000 ft^2, as far as in the treatment: canola oil concentrate (94.7%:4.7%:0.8% oil:Foursome:Silwet L-77) 8 fl. oz., Urea 0.2 lb. N
Excerpt: This study was established on a brown, desiccated, winter-dormant creeping bentgrass putting green (Agrostis palustris) (˜0.15 in ([…]) height of cut) on the same research center as in previous examples. The study was established in four replications of a randomized block design, using 2 ft.×7.5 ft. (0.6 m×2.3 m) plots with 6 in. (0.15 m) alleys. Treatments were applied with the backpack sprayer described in Example 1 operating at 40 PSI (2.8 kg/cm^2) with a 96 GPA (898 L/ha) spray volume. Treatments were applied in this “green-up”/winter dormancy break study on a 21-day schedule on Apr. 5, 2013, and Apr. 27, 2013 Turfgrass quality ratings in this example included observations of increased density, increased growth, and degree of color intensity change. These observations were taken on May 11, 2013, and were based on a visual 1 (worst) −9 (best) rating scale, with a 7-rating representing acceptable turfgrass “quality.”

[6] = test system: creeping bentgrass (Argostis palustris) fairway; assay: Example 2: visual growth (biomass) rating; settings: scale 1 = least, 9 = most increase
[7] = test system: creeping bentgrass (Argostis palustris) fairway; assay: Example 2: clippings (biomass) dry weight
Method: Objective biomass ratings were also performed based on an increase in dried weight of clippings. Clippings were collected over pre-measured plot areas in each treatment replicate using a Toro® brand walk-behind greens mower Model […] 8000 at the height described in this Example and dried in a drying oven (60° C.) for approximately 48 hours before being weighed. […] Prior to the study, diseases were controlled with as-needed fungicide applications. Fertility was maintained at approximately 0.1 lb.

irrigated putting green [8] = assay: Example 15: turfgrass color (chlorophyll) rating, FieldScout CM 1000 Chlorophyll Meter
Method: as §1, §2
The turfgrass color (chlorophyll) rating of Oct.

[9] = Trt. 4, 0.1 lb N/1000 sq. ft. /14 days, Oct. 6
[10] = Trt. 5, 0.05 lb N/1000 sq. ft. /14 days, Oct. 6
[11] = Sep. 3, 2013, one application, per 1000 ft^2, as far as in the treatment: Urea 0.1 lb. N, Canola Oil Concentrate/Bio-Adjuvant 10 fl. oz., Civitas 8 + Harmonizer 0.5 fl. oz.
[12] = Sep. 3, 2013, Urea 0.2 lb. N/1000 ft^2, Canola Oil 10 fl. oz. or Civitas 8 + Harmonizer 0.5 fl. oz. where in the treatment
[13] = Sep. 3, 2013, Urea 0.3 lb. N/1000 ft^2, Canola Oil Bio-Adjuvant 10 fl. oz. or Civitas 8 + Harmonizer 0.5 fl. oz. where in the treatment

SMILES: NC(N)=O [Urea (46-0-0), urea]
- Dew rating, Mean (irrigated putting green [1]; Trt. 4, 0.1 lb N/1000 sq. ft. /14 days): 5.0
- Dew rating, Mean (irrigated putting green [1]; Trt. 5, 0.05 lb N/1000 sq. ft. /14 days): 5.0
- Dried Clipping Weight, Mean (irrigated putting green [2]; Trt. 4, 0.1 lb N/1000 sq. ft., Oct. 8): 62.5 gms
- Dried Clipping Weight, Mean (irrigated putting green [2]; Trt. 4, 0.1 lb N/1000 sq. ft., Oct. 24): 55.8 gms
- All Clippings (Dried), Mean Total Clippings (irrigated putting green [2]; Trt. 4, 0.1 lb N/1000 sq. ft.): 189.8 gms
- Dried Clipping Weight, Mean (irrigated putting green [2]; Trt. 4, 0.1 lb N/1000 sq. ft., Sept. 19): 71.5 gms
- Dried Clipping Weight, Mean (irrigated putting green [2]; Trt. 5, 0.05 lb N/1000 sq. ft., Oct. 8): 59.5 gms
- Dried Clipping Weight, Mean (irrigated putting green [2]; Trt. 5, 0.05 lb N/1000 sq. ft., Oct. 24): 46.5 gms
- All Clippings (Dried), Mean Total Clippings (irrigated putting green [2]; Trt. 5, 0.05 lb N/1000 sq. ft.): 177.3 gms
- Dried Clipping Weight, Mean (irrigated putting green [2]; Trt. 5, 0.05 lb N/1000 sq. ft., Sept. 19): 71.3 gms
- Visual Turfgrass Growth, MEAN (irrigated putting green [3]; [9]): 2.5
- Visual Turfgrass Growth, MEAN (irrigated putting green [3]; Trt. 4, 0.1 lb N/1000 sq. ft. /14 days, Sept. 19): 2.5
- Visual Turfgrass Growth, MEAN (irrigated putting green [3]; Trt. 4, 0.1 lb N/1000 sq. ft. /14 days, Sept. 25): 3.8
- Visual Turfgrass Growth, MEAN (irrigated putting green [3]; [10]): 2.3
- Visual Turfgrass Growth, MEAN (irrigated putting green [3]; Trt. 5, 0.05 lb N/1000 sq. ft. /14 days, Sept. 19): 2.8
- Visual Turfgrass Growth, MEAN (irrigated putting green [3]; Trt. 5, 0.05 lb N/1000 sq. ft. /14 days, Sept. 25): 3.3
- Visual Turfgrass Quality, MEAN (irrigated putting green [4]; Trt. 4, 0.1 lb N/1000 sq. ft. /14 days, Oct. 1 (3 DAT)): 7.0
- Visual Turfgrass Quality, MEAN (irrigated putting green [4]; Trt. 4, 0.1 lb N/1000 sq. ft. /14 days, Oct. 6 (8 DAT)): 7.3
- Visual Turfgrass Quality, MEAN (irrigated putting green [4]; Trt. 4, 0.1 lb N/1000 sq. ft. /14 days, Sept. 19 (6 DAT)): 7.3
- Visual Turfgrass Quality, MEAN (irrigated putting green [4]; Trt. 5, 0.05 lb N/1000 sq. ft. /14 days, Oct. 1 (3 DAT)): 7.0
- Visual Turfgrass Quality, MEAN (irrigated putting green [4]; Trt. 5, 0.05 lb N/1000 sq. ft. /14 days, Oct. 6 (8 DAT)): 6.8
- Visual Turfgrass Quality, MEAN (irrigated putting green [4]; Trt. 5, 0.05 lb N/1000 sq. ft. /14 days, Sept. 19 (6 DAT)): 6.8
- Turfgrass Quality [5]: 6.0 c
- Visual Growth (Biomass) [6, 11]: 3 ef
- Visual Growth (Biomass) [6, 12]: 3.75 de
- Visual Growth (Biomass) [6, 13]: 3.75 de
- Clippings (Biomass) Dry wt (g) [7, 11]: 7.21 f g
- Clippings (Biomass) Dry wt (g) [7, 12]: 7.87 f g
- Clippings (Biomass) Dry wt (g) [7, 13]: 9.77 bcd g
- Turfgrass Color (Greenness), MEAN, chlorophyll meter reading (irrigated putting green [8]; [9]): 352.5
- Turfgrass Color (Greenness), MEAN, chlorophyll meter reading (irrigated putting green [8]; Trt. 4, 0.1 lb N/1000 sq. ft. /14 days, Oct. 25): 272.3
- Turfgrass Color (Greenness), MEAN, chlorophyll meter reading (irrigated putting green [8]; [10]): 352.3
- Turfgrass Color (Greenness), MEAN, chlorophyll meter reading (irrigated putting green [8]; Trt. 5, 0.05 lb N/1000 sq. ft. /14 days, Oct. 25): 261
